A short description of series [1]: Encapsulation test C (interfacial tension against purified water). Type of series: physicochemical. As to the method:
The interfacial tension was measured with the force tensiometer SIGMA 702 (KSV Instruments LTD).

A short description of series [2]: l-Menthol dissolution test. The format is physicochemical. The conditions noted are these: for Dissolution: stored at 20° C. As to the method:
The solution was stored at 20° C. and evaluated based on the time during which the solution was maintained in a liquid state without solidifying.
A sample that solidified before being cooled down to 20° C. [e.g., during the process of cooling down to a temperature below the melting point of l-menthol (generally 42 to 45° C.)] or immediately (e.g., within 30 minutes) after being stored at 20° C. was rated D. A sample that was maintained as a solution for a while (e.g., more than 30 minutes) but solidified in less than 24 hours was rated C.

Consider `CCOC(=O)CCC(=O)OCC` [Diethyl succinate], for which the interfacial tension in series [1] (against purified water, samples containing 80 to 50 wt % l-menthol) is no less than 5 mN/m. The Interfacial tension rating result is on record as “A (a sample having an interfacial tension of 5 mN/m or more was rated A)” in series [1] (l-Menthol 50, solvent 50 pbw); “A (a sample having an interfacial tension of 5 mN/m or more was rated A)” in series [1] (l-Menthol 60, solvent 40 pbw); “A (a sample having an interfacial tension of 5 mN/m or more was rated A)” in series [1] (l-Menthol 70, solvent 30 pbw); “A (a sample having an interfacial tension of 5 mN/m or more was rated A)” in series [1] (l-Menthol 80, solvent 20 pbw). In addition, the Dissolution entry in series [2] (l-Menthol 50, solvent 50 pbw) is given as “A (A sample that did not solidify in 10 days or more was rated A)”; in series [2] (l-Menthol 60, solvent 40 pbw), “A (A sample that did not solidify in 10 days or more was rated A)”; in series [2] (l-Menthol 70, solvent 30 pbw) it was “A (A sample that did not solidify in 10 days or more was rated A)”; in series [2] (l-Menthol 80, solvent 20 pbw), “C (A sample that was maintained as a solution for a while (e.g., more than 30 minutes) but solidified in less than 24 hours was rated C)”. Besides, the “ability to dissolve menthol (rating)” value in series [2] (menthol concentration ranging 70 to 50 wt %) is “A or B”.

These data come from patent US20230133580A1, “MENTHOL-CONTAINING COMPOSITION” (SUNSHO PHARMACEUTICAL CO., LTD., priority 2020, published 2023).
